Where two headings read alike, the source gives them in different places.
Key:
GABAC receptors = details: antagonist; Woodward et al, 1993; cited from earlier work
GABAC (ρ1) = molecular target: T1, GABAC (ρ1) (Homo sapiens, UniProt P24046); assay: Two-electrode voltage clamp on ρ1 GABAC receptors expressed in Xenopus oocytes; format: cell-based; details: for Selectivity (receptor subtype preferred): among GABAA, GABAB, GABAC; for Selectivity (fold): for GABAC over GABAA and GABAB
T1 construct: expressed in transfected cells; host or cells: Xenopus laevis oocytes injected with mRNA
T1 sequence (P24046 22-479): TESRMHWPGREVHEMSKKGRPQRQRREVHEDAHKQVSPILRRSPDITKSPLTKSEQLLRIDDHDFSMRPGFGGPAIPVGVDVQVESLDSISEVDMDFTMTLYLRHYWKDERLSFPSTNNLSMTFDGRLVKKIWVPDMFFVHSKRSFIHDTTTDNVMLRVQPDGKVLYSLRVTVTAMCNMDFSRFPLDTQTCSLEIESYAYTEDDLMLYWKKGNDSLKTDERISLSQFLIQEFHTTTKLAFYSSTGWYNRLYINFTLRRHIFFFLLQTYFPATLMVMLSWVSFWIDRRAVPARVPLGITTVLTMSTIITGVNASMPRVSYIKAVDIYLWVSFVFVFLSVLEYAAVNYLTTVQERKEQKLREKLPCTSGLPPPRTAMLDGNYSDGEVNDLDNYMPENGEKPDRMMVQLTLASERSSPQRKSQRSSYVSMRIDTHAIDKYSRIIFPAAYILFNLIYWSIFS
Protocol: (§1) The activity of compounds (15), (16), (17), (18) and (19) on GABA receptor sub-types were determined as described in Chebib, M., Mewett, K. N., Johnston, G. A. R., 1998, “GABAC receptor antagonists differentiate between human ρ1 and ρ2 receptors expressed in Xenopus oocytes”, European Journal of Pharmacology 357, 227-234.
(§2) In this method, oocytes were harvested from Xenopus laevis and defolliculated. The oocytes were then stored in ND96 solution (96 mM NaCl, 2 mM KCl, 1.8 mM CaCl2.2H2O, 1 mM MgCl2.6H2O, 5 mM HEPES (hemi-Na), pH 7.5) supplemented with 2.5 mM sodium pyruvate, 0.5 mM theophylline and 50 μgml^−1 gentamycin. The storage solution was changed daily.
(§3) Stage V-VI oocytes were injected with mRNA (10 ng/50 nl) and then stored at 16° C. Recordings of receptor activity were obtained after two to eight days by a two-electrode voltage clamp by means of a Geneclamp 500 amplifier (Axon Instruments Inc., Foster City, Calif.), a MacLab 2e recorder (AD Instruments, Sydney, NSW) and Chart version 3.6.3 program. Oocytes were voltage clamped at −60 mV and the preparation was continually perfused with ND96 solution at room temperature. Known concentrations of agonists and antagonists dissolved in ND96 were applied in the absence and presence of GABA respectively until maximum current was reached, at which time the oocyte was washed for five to ten minutes to allow complete recovery of response to a known dose of GABA. In the case of antagonists, two dose response curves were conducted on the same cell to enable calculation of single point estimates: a GABA dose-response curve and a GABA dose-response curve in the presence of a known concentration of antagonist. All compounds were tested on oocytes from at least three harvests.
The activity of this compound on the GABA receptor sub-types was determined by the same procedure as described in Example 2 for compounds (15) to (19). (±)-3-Aminocyclopente-1-nyl)methylphosphinic acid (200 μM) had no effect alone on ρ1 GABAC receptors but in the presence of 1 μM GABA inhibited the response by 65%.

GABAA (α1β2γ2L) = molecular target: T2, GABAA (α1β2γ2L) (Homo sapiens, UniProt P14867+P47870); assay: Two-electrode voltage clamp on GABAA receptors expressed in Xenopus oocytes; format: cell-based; details: for GABAA (α1β2γ2L) activity (type of action): Xenopus oocytes, voltage clamp -60 mV
T2 construct: expressed in transfected cells; host or cells: Xenopus laevis oocytes injected with mRNA
T2 sequence (P14867 28-456): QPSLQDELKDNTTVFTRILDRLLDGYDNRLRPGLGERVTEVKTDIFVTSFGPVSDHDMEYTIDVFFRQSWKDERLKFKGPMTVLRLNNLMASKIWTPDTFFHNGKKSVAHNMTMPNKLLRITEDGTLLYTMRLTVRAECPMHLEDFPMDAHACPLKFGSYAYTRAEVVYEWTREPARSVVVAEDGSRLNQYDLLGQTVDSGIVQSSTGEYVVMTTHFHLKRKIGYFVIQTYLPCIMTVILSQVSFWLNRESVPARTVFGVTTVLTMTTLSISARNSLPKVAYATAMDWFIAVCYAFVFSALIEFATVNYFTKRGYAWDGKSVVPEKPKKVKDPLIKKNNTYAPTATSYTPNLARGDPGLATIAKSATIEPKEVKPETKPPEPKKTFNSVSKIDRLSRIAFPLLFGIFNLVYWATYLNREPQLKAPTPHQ
T2 sequence (P47870 25-512 limits assumed): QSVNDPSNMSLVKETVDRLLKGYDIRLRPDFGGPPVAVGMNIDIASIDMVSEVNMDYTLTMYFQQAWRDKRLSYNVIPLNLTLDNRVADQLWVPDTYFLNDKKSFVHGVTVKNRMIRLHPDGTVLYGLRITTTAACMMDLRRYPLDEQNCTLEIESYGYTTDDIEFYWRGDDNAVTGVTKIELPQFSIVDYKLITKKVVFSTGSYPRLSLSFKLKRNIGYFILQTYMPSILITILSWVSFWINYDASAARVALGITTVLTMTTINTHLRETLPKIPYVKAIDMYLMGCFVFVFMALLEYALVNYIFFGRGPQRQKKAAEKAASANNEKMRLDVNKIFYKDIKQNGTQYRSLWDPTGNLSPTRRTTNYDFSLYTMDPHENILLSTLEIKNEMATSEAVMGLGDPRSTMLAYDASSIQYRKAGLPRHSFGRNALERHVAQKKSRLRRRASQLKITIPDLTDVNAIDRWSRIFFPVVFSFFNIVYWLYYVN
T2 sequence (P18507 40-475 partner): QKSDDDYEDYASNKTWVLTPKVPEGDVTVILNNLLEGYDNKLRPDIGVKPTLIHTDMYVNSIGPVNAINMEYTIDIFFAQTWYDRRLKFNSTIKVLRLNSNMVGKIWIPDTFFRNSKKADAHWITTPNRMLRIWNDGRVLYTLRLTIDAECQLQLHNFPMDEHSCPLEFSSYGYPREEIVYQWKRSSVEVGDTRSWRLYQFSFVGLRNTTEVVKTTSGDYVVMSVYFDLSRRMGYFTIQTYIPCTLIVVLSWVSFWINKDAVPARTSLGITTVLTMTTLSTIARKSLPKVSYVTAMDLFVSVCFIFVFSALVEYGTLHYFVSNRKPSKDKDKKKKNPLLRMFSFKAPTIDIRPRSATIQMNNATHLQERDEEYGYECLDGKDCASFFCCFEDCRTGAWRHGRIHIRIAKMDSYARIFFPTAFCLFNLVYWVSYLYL
Protocol: as §1, §2, §3

GABAB (GB1) = molecular target: T3, GABAB (GB1) (Homo sapiens, UniProt Q9UBS5); assay: Two-electrode voltage clamp on GABAB receptors expressed in Xenopus oocytes; format: cell-based; details: for GABAB (GB1) activity (type of action): voltage clamp -60 mV
T3 construct: expressed in transfected cells; host or cells: Xenopus laevis oocytes injected with mRNA
T3 sequence (Q9UBS5 20-961, species assumed): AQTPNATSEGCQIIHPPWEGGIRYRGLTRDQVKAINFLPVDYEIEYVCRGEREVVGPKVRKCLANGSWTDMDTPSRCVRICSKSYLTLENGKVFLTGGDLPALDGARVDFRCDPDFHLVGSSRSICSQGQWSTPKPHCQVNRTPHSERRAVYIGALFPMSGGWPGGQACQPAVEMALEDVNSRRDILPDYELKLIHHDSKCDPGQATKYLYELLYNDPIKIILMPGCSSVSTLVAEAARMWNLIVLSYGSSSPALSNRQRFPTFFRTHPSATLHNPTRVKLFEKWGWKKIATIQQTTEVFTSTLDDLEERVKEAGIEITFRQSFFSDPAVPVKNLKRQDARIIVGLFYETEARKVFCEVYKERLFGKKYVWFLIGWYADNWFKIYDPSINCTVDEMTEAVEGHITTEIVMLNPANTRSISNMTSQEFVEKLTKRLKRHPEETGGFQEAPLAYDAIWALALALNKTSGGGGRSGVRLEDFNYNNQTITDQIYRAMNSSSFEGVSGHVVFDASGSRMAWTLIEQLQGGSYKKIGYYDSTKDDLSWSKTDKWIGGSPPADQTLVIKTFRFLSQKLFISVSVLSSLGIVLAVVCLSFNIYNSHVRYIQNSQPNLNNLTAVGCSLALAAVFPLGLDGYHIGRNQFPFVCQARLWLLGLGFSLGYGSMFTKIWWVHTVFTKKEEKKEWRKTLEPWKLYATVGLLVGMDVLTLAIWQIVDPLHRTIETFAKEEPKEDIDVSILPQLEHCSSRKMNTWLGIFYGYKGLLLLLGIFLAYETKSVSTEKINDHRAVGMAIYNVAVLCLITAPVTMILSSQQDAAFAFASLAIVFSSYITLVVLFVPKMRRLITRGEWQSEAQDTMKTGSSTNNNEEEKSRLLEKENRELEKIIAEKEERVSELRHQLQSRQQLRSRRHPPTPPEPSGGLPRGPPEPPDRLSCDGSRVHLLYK
T3 sequence (O75899 42-941 partner, species assumed): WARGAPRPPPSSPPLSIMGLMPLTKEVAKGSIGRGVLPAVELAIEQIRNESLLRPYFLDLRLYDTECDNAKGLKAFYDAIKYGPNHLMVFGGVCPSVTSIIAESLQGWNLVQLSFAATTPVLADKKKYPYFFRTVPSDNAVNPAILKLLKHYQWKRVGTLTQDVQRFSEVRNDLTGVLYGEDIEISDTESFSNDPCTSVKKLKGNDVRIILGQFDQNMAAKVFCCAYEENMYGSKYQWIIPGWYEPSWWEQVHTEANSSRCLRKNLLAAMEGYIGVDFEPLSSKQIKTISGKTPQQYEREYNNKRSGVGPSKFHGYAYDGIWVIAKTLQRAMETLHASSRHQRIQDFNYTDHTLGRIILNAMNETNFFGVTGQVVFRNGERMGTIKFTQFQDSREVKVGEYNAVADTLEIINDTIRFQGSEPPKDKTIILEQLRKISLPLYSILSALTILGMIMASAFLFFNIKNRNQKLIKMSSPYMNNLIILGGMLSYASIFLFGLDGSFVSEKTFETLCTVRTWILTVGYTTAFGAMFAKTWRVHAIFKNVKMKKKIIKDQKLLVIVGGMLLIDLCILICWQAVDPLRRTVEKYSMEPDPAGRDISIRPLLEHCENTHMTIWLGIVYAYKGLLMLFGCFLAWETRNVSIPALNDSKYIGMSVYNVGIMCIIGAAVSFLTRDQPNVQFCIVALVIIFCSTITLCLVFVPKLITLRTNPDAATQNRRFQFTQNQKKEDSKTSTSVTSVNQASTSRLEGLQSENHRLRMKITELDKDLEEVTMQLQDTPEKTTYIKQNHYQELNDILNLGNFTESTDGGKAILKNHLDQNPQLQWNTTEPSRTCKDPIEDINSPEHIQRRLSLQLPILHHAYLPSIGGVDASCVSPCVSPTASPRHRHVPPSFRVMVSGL
Protocol: as §1, §2, §3

GABAC receptor = GABAC receptor (Homo sapiens, UniProt P24046); details: cited from earlier work
Sequence of GABAC receptor (P24046 22-479): as the sequence (P24046 22-479) above

[1] = Xenopus oocytes, voltage clamp -60 mV

Question: For `CP(=O)(O)CCCN` [CGP35024, (3-aminopropyl)methylphosphinic acid], which Kb (GABAC receptors) is on record?
Answer: 0.8 µM

Question: With `NCCCP(=O)(O)O` [Compound 3-APA, 3-aminopropylphosphonic acid] as the molecule, how does the Kb (GABAC receptors) read?
Answer: 1.8 µM

Question: What does the source list for `CCP(=O)(O)C1=CCC(N)C1` (racemic) [Compound 16, (±)-(4-Aminocyclopent-1-enyl)ethylphosphinic acid]?
Answer: GABAC (ρ1) activity (type of action) (GABAC (ρ1); [1]): Antagonist; Selectivity (receptor subtype preferred) (GABAC (ρ1)): GABAC; Selectivity (fold) (GABAC (ρ1)): ˜25x; IC50 (GABAA (α1β2γ2L)): > 600 µM; GABAA (α1β2γ2L) activity (type of action) (GABAA (α1β2γ2L)): Antagonist; IC50 (GABAB (GB1)): > 300 µM; GABAB (GB1) activity (type of action) (GABAB (GB1); Xenopus oocytes): Antagonist

Question: For `CCCCP(=O)(O)C1=CCC(N)C1` (racemic) [Compound 18, (±)-(4-Aminocyclopent-1-enyl)butylphosphinic acid], which “GABAC (ρ1) activity (type of action)” value (GABAC (ρ1); [1]) is on record?
Answer: Antagonist

Question: And the “Selectivity (receptor subtype preferred)” value (GABAC (ρ1))?
Answer: GABAC

Question: And the “Selectivity (fold)” value (GABAC (ρ1))?
Answer: ˜100x

Question: And the IC50 (GABAA (α1β2γ2L))?
Answer: > 300 µM

Question: What about the “GABAA (α1β2γ2L) activity (type of action)” value (from here on “GABAA (α1β2γ2L) activity”) (GABAA (α1β2γ2L)) of the same molecule?
Answer: Antagonist

Question: And the IC50 (GABAB (GB1))?
Answer: ~300 µM

Question: What about the “GABAB (GB1) activity (type of action)” value (GABAB (GB1); Xenopus oocytes) of the same molecule?
Answer: Antagonist

Question: Which Kb (GABAC receptors) does the source give for `NCCC[PH](=O)O` [CGP27492, 3-aminopropylphosphinic acid] here?
Answer: 0.8 µM

Question: Which results are given for “(1,2,5,6-tetrahydropyridine-4-yl)methylphosphinic acid [TPMPA]”?
Answer: Kb (GABAC receptor; antagonist, Murata et al, 1996, Ragozzinno et al, 1996, read-out: KB at GABAC receptors): 2.1 µM; IC50 (GABAC receptor; read-out: Concentration producing 50% inhibition of GABAC receptor activation): 2.1 µM

Question: For `CC(C)P(=O)(O)C1=CCC(N)C1` (racemic) [Compound 17, (±)-(4-Aminocyclopent-1-enyl)isopropylphosphinic acid], which IC50 (GABAC (ρ1)) is on record?
Answer: 6.34 µM

Question: And the “GABAC (ρ1) activity (type of action)” value (GABAC (ρ1); [1])?
Answer: Antagonist

Question: What about the “Selectivity (receptor subtype preferred)” value (GABAC (ρ1)) of the same molecule?
Answer: GABAC

Question: What about the “Selectivity (fold)” value (GABAC (ρ1)) of the same molecule?
Answer: ˜50x

Question: What about the IC50 (GABAA (α1β2γ2L)) of the same molecule?
Answer: > 600 µM

Question: What about the “GABAA (α1β2γ2L) activity” value (GABAA (α1β2γ2L)) of the same molecule?
Answer: Antagonist

Question: And the IC50 (GABAB (GB1))?
Answer: > 300 µM

Question: What about the “GABAB (GB1) activity (type of action)” value (GABAB (GB1); Xenopus oocytes) of the same molecule?
Answer: Antagonist

Question: What does the source list for `NC1CC=C(P(=O)(O)Cc2ccccc2)C1` (racemic) [Compound 19, (±)-(4-Aminocyclopent-1-enyl)benzylphosphinic acid]?
Answer: GABAC (ρ1) activity (type of action) (GABAC (ρ1); [1]): Antagonist; IC50 (GABAC (ρ1); Xenopus oocytes, voltage clamp -60 mV, read-out: GABAC (ρ1) IC50): > 300 µM; GABAA (α1β2γ2L) activity (type of action) (GABAA (α1β2γ2L)): Antagonist; GABAB (GB1) effect (GABAB (GB1); at ~300 μM, Xenopus oocytes): (No effect ˜ 300 μM)

Question: For `CP(=O)(O)C1=CCC(N)C1` (racemic) [Compound 15, (±)-(4-Aminocyclopent-1-enyl)methylphosphinic acid], which “GABAC (ρ1) activity (type of action)” value (GABAC (ρ1); [1]) is on record?
Answer: Antagonist

Question: And the “Selectivity (receptor subtype preferred)” value (GABAC (ρ1))?
Answer: GABAC

Question: And the “Selectivity (fold)” value (GABAC (ρ1))?
Answer: ˜50x

Question: And the IC50 (GABAA (α1β2γ2L))?
Answer: > 300 µM

Question: And the “GABAA (α1β2γ2L) activity” value (GABAA (α1β2γ2L))?
Answer: Antagonist

Question: And the “GABAB (GB1) activity (type of action)” value (GABAB (GB1); Xenopus oocytes)?
Answer: Partial Agonist

Source: US20080032950A1, “Neurologically-Active Compounds” (The University of Sydney, priority 2004, published 2008)
